# Reference: patent publication US10993941B2, “Methods for the administration of certain VMAT2 inhibitors” (Neurocrine Biosciences, Inc., priority 2017, dated 2021)
# Entries after “also recorded” stand apart in the source; their conditions may differ.
# What was measured:
# [1] = target: T1, VMAT2 (Homo sapiens, UniProt Q05940); assay: Inhibition of [3H]-DHTBZ binding to human platelets
# T1 construct: from tissue; host or cells: human platelets (homogenates)
# [2] = target: T2, VMAT2 (Rattus norvegicus, UniProt Q01827); assay: Inhibition of [3H]-DHTBZ binding to rat striatal membranes; details: Rat Striatum
# T2 construct: from tissue; host or cells: rat forebrain membranes
# [3] = target: T3, human VMAT1 transporter (Homo sapiens, UniProt P54219); assay: Uptake in cells expressing VMAT1; format: cell-based; details: concentrations up to 10 μM
# T3 construct: expressed in transfected cells
# T3 sequence (P54219 1-525): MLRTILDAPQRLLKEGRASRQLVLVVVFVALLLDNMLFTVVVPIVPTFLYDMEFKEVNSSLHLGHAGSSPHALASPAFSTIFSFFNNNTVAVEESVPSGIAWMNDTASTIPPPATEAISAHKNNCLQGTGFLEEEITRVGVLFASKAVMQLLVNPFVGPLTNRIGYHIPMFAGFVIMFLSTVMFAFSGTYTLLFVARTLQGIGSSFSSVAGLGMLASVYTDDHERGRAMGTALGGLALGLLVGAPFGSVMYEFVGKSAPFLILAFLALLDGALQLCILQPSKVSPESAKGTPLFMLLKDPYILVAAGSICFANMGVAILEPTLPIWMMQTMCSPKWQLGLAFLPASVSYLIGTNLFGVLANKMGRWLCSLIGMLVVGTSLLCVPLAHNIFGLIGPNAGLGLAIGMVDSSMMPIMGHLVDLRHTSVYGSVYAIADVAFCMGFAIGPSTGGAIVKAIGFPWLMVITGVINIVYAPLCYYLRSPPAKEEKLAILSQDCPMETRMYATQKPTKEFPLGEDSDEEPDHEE
# Procedure: None of the TBZ or VBZ metabolites had any affinity for the monoamine transporters DAT, SERT or NET. To complete the selectivity profile for VMAT2, the functional activity for the human VMAT1 transporter of these compounds was tested in cells expressing VMAT1.
# [4] = test system: ptosis; assay: Ptosis, in vivo surrogate measure
# [5] = both, human, in vivo
# Source text: (§1) Overall, 24 male and female subjects were enrolled, including 6 subjects with normal hepatic function (Group I), 6 with mild stable hepatic impairment (Group II), 6 with moderate stable hepatic impairment (Group III), and 6 with severe stable hepatic impairment (Group IV). […] All subjects were genotyped to determine their cytochrome P450 2D6 (CYP2D6) status.
# (§2) The Child-Pugh scale was used to categorize the degree of hepatic impairment for assignment into the mild (score of 5-6), moderate (score of 7-9), and severe hepatic impairment (score of 10-15) groups.
# (§3) After providing informed consent, subjects were screened for eligibility within 28 days of study drug dosing on Day 1. Eligible subjects were admitted to the center in the morning (Day −1), before the dosing day and remained confined in the center for 4 days. Subjects were discharged on Day 4, after the collection of the 72-hour PK sample and safety assessments. On the morning of Days 5 and 6, subjects returned to the center for a PK sample collection and safety assessments; a final study visit was conducted on Day 8 (7 days postdose).
# (§4) Safety assessments were conducted at scheduled times throughout the study.
# [6] = test system: more than 80 targets including GPCRs, cell-surface monoamine transporters, and ion channels including HERG; assay: Multi-target activity screen (Cerep screen); details: receptors
# [7] = test system: serum prolactin; assay: Prolactin release, in vivo surrogate measure
# [8] = clinical; details: both, human, in vivo
# Source text: as §1, §2, §3, §4
# [9] = Phase 1 single-dose safety and tolerability (adverse events, laboratory tests, vital signs, ECG); format: in vivo, human; details: NBI-98854 50 mg single dose; for Abdominal discomfort / Adverse events: Overall / Back pain / Constipation / Dyspepsia / Epistaxis / Gastrointestinal Disorders / General Disorders and Administrative Site Conditions / Haemorrhoids / Headache / Infections and Infestations / Musculoskeletal and Connective Tissue Disorders / Nausea / Nervous System Disorders / Rash / Respiratory, Thoracic, and Mediastinal Disorders / Rhinitis / Skin and Subcutaneous Tissue Disorders / Vessel puncture site haematoma: subjects n (%)
# [10] = test system: dopamine, serotonin and adrenergic receptor subtypes; assay: Detailed radioligand binding assays, monoamine receptor subtypes
# [11] = target: Dopamine D2(s) (Homo sapiens, UniProt P14416); assay: Cerep screen, ligand binding; details: radioligand binding assays and broad panel screen
# [12] = target: Dopamine D1 (Homo sapiens, UniProt P21728); assay: Cerep screen, ligand binding; details: radioligand binding assays and broad panel screen
# Sequence of Dopamine D1 (P21728 whole entry): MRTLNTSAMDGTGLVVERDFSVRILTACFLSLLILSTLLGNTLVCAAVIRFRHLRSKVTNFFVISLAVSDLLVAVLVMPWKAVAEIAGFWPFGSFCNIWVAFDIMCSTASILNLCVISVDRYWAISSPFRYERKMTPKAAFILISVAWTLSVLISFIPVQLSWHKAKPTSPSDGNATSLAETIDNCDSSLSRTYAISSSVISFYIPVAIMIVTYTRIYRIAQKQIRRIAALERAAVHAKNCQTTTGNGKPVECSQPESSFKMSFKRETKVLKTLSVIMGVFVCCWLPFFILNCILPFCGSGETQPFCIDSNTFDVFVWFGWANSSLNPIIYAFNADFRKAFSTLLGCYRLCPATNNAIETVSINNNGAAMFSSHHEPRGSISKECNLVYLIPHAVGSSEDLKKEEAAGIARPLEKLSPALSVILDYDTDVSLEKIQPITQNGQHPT
# Sequence of Dopamine D2(s) (P14416 1-414 isoform P14416-2): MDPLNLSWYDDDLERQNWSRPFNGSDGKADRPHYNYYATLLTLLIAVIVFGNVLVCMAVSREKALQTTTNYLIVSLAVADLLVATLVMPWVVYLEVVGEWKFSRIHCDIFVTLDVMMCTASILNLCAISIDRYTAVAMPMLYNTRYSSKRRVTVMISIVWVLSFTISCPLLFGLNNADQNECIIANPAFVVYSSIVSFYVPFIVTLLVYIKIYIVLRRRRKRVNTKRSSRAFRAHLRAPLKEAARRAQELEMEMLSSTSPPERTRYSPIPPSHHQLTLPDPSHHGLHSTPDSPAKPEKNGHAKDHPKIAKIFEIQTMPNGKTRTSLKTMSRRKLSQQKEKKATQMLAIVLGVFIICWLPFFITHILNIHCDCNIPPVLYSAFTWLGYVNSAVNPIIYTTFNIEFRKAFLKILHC
# T2 sequence (Q01827 whole entry): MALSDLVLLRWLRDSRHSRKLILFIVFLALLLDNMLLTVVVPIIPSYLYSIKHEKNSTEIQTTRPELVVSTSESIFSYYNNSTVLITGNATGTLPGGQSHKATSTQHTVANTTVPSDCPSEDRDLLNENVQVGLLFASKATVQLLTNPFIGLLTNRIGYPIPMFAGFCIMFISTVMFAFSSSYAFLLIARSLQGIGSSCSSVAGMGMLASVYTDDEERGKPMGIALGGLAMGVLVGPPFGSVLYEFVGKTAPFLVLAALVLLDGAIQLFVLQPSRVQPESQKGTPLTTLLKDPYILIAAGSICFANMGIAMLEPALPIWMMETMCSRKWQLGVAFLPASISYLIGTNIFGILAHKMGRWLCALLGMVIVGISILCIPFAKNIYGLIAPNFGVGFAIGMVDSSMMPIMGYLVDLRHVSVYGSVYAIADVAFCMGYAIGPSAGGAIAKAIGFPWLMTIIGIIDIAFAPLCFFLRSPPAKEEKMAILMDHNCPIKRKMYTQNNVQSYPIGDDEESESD
# T1 sequence (Q05940 whole entry): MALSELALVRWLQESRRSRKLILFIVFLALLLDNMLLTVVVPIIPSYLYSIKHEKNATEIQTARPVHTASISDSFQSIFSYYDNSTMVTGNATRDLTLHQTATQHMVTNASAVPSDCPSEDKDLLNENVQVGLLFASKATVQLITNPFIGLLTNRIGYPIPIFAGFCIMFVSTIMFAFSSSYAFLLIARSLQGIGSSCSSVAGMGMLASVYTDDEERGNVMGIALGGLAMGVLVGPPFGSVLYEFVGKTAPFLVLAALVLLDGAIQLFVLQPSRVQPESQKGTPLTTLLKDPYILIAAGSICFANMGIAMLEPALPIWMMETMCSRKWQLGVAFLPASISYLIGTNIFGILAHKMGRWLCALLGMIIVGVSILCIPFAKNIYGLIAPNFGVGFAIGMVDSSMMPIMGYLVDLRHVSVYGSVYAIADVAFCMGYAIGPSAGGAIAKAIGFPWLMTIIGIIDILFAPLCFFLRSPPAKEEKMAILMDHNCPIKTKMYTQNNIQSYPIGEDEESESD
structure (smiles),measurement,setting,value
"COc1cc2c(cc1OC)[C@H]1C[C@@H](OC(=O)[C@@H](N)C(C)C)[C@H](CC(C)C)CN1CC2 [NBI-98854, (S)-2-amino-3-methyl-butyric acid (2R,3R,11bR)-3-isobutyl-9,10-dimethoxy-1,3,4,6,7,11b-hexahydro-2H-pyrido[2,1-a]isoquinolin-2-yl ester]","Affinity Relative to R,R,R-DHTBZ",[1],45
same,"Affinity Relative to R,R,R-DHTBZ",[2],39
same,inhibition of uptake through VMAT1,[3]; listed as VBZ,no significant inhibitory activity; also recorded: no significant effect on the uptake of monoamines through VMAT1
same,induction of ptosis,[4],induced ptosis in an equivalent manner
same,increase in Cmax,[5],2-3 fold
same,increase in t1/2 with hepatic impairment,[5],< 2 fold
same,increase in tmax with hepatic impairment,[5],< 2 fold
same,mean Tlag,[5],0.17 to 0.38 h
same,affinity for more than 80 binding sites,[6],little to no affinity
same,increase in serum prolactin levels,[7],to a lesser extent
same,MRT,[8],23 to 30 h
same,half-life,[8]; mean t1/2,21 to 22 h
same,MRT,"[8]; po, 50 mg",24 h
same,Tmax,"[8]; po, 50 mg, TMAX",1.1 h
same,Vd/F,"[8]; po, 50 mg, Vz/F",600 L
same,half-life,"[8]; po, 50 mg, t1/2",28 h
same,Abdominal discomfort,[9]; Mild (N = 6),0
same,Adverse events: Overall,[9]; Mild (N = 6),2 (33.3%)
same,Back pain,[9]; Mild (N = 6),0
same,Constipation,[9]; Mild (N = 6),0
same,Dyspepsia,[9]; Mild (N = 6),0
same,Epistaxis,[9]; Mild (N = 6),0
same,Gastrointestinal Disorders,[9]; Mild (N = 6),1 (16.7%)
same,General Disorders and Administrative Site Conditions,[9]; Mild (N = 6),0
same,Haemorrhoids,[9]; Mild (N = 6),1 (16.7%)
same,Headache,[9]; Mild (N = 6),1 (16.7%)
same,Infections and Infestations,[9]; Mild (N = 6),1 (16.7%)
same,Musculoskeletal and Connective Tissue Disorders,[9]; Mild (N = 6),0
same,Nausea,[9]; Mild (N = 6),0
same,Nervous System Disorders,[9]; Mild (N = 6),1 (16.7%)
same,Rash,[9]; Mild (N = 6),0
same,"Respiratory, Thoracic, and Mediastinal Disorders",[9]; Mild (N = 6),0
same,Rhinitis,[9]; Mild (N = 6),1 (16.7%)
same,Skin and Subcutaneous Tissue Disorders,[9]; Mild (N = 6),0
same,Vessel puncture site haematoma,[9]; Mild (N = 6),0
same,Abdominal discomfort,[9]; Moderate (N = 6),0
same,Adverse events: Overall,[9]; Moderate (N = 6),2 (33.3%)
same,Back pain,[9]; Moderate (N = 6),1 (16.7%)
same,Constipation,[9]; Moderate (N = 6),1 (16.7%)
same,Dyspepsia,[9]; Moderate (N = 6),0
same,Epistaxis,[9]; Moderate (N = 6),0
same,Gastrointestinal Disorders,[9]; Moderate (N = 6),1 (16.7%)
same,General Disorders and Administrative Site Conditions,[9]; Moderate (N = 6),0
same,Haemorrhoids,[9]; Moderate (N = 6),0
same,Headache,[9]; Moderate (N = 6),0
same,Infections and Infestations,[9]; Moderate (N = 6),0
same,Musculoskeletal and Connective Tissue Disorders,[9]; Moderate (N = 6),1 (16.7%)
same,Nausea,[9]; Moderate (N = 6),0
same,Nervous System Disorders,[9]; Moderate (N = 6),0
same,Rash,[9]; Moderate (N = 6),1 (16.7%)
same,"Respiratory, Thoracic, and Mediastinal Disorders",[9]; Moderate (N = 6),0
same,Rhinitis,[9]; Moderate (N = 6),0
same,Skin and Subcutaneous Tissue Disorders,[9]; Moderate (N = 6),1 (16.7%)
same,Vessel puncture site haematoma,[9]; Moderate (N = 6),0
same,Abdominal discomfort,[9]; Normal (N = 6),1 (16.7%)
same,Adverse events: Overall,[9]; Normal (N = 6),2 (33.3%)
same,Back pain,[9]; Normal (N = 6),0
same,Constipation,[9]; Normal (N = 6),0
same,Dyspepsia,[9]; Normal (N = 6),0
same,Epistaxis,[9]; Normal (N = 6),0
same,Gastrointestinal Disorders,[9]; Normal (N = 6),1 (16.7%)
same,General Disorders and Administrative Site Conditions,[9]; Normal (N = 6),1 (16.7%)
same,Haemorrhoids,[9]; Normal (N = 6),0
same,Headache,[9]; Normal (N = 6),0
same,Infections and Infestations,[9]; Normal (N = 6),0
same,Musculoskeletal and Connective Tissue Disorders,[9]; Normal (N = 6),0
same,Nausea,[9]; Normal (N = 6),0
same,Nervous System Disorders,[9]; Normal (N = 6),0
same,Rash,[9]; Normal (N = 6),0
same,"Respiratory, Thoracic, and Mediastinal Disorders",[9]; Normal (N = 6),0
same,Rhinitis,[9]; Normal (N = 6),0
same,Skin and Subcutaneous Tissue Disorders,[9]; Normal (N = 6),0
same,Vessel puncture site haematoma,[9]; Normal (N = 6),1 (16.7%)
same,Abdominal discomfort,[9]; Severe (N = 6),0
same,Adverse events: Overall,[9]; Severe (N = 6),2 (33.3%)
same,Back pain,[9]; Severe (N = 6),0
same,Constipation,[9]; Severe (N = 6),0
same,Dyspepsia,[9]; Severe (N = 6),1 (16.7%)
same,Epistaxis,[9]; Severe (N = 6),1 (16.7%)
same,Gastrointestinal Disorders,[9]; Severe (N = 6),1 (16.7%)
same,General Disorders and Administrative Site Conditions,[9]; Severe (N = 6),0
same,Haemorrhoids,[9]; Severe (N = 6),0
same,Headache,[9]; Severe (N = 6),0
same,Infections and Infestations,[9]; Severe (N = 6),0
same,Musculoskeletal and Connective Tissue Disorders,[9]; Severe (N = 6),0
same,Nausea,[9]; Severe (N = 6),1 (16.7%)
same,Nervous System Disorders,[9]; Severe (N = 6),0
same,Rash,[9]; Severe (N = 6),0
same,"Respiratory, Thoracic, and Mediastinal Disorders",[9]; Severe (N = 6),1 (16.7%)
same,Rhinitis,[9]; Severe (N = 6),0
same,Skin and Subcutaneous Tissue Disorders,[9]; Severe (N = 6),0
same,Vessel puncture site haematoma,[9]; Severe (N = 6),0
same,intensity of TEAEs judged by the investigator,[9]; all TEAEs,mild in intensity
same,"changes in clinical laboratory tests, vital signs measurements, or ECG parameters",[9]; all groups,no clinically significant changes
same,"deaths, serious or severe TEAEs",[9]; all groups,"No deaths, serious or severe treatment-emergent adverse events (TEAEs) were reported; also recorded: No deaths, serious TEAEs, or discontinuations due to an AE were reported"
same,discontinuation due to a TEAE,[9]; all groups,no subject discontinued the study due to a TEAE
same,tolerability,[9]; normal subjects and subjects with hepatic impairment,well-tolerated
same,Treatment-related AEs (possibly or definitely related to study drug),[9]; of 24 subjects,4 subjects
"COc1cc2c(cc1OC)[C@H]1C[C@@H](O)[C@H](CC(C)C)CN1CC2 [NBI-98782, (2R,3R,11bR)-3-isobutyl-9,10-dimethoxy-1,3,4,6,7,11b-hexahydro-2H-pyrido[2,1-a]isoquinolin-2-ol]",inhibition of uptake through VMAT1,"[3]; listed as R,R,R-DHTBZ",no significant inhibitory activity; also recorded: no significant effect on the uptake of monoamines through VMAT1
same,induction of ptosis,[4],induced ptosis in an equivalent manner
same,increase in AUC0-∞,[5],approximately 3.5 fold
same,increase in t1/2 with hepatic impairment,[5],< 2 fold
same,increase in tmax with hepatic impairment,[5],< 2 fold
same,mean Tlag,[5],0.42 to 0.67 h
same,affinity for more than 80 binding sites,[6],little to no affinity
same,increase in serum prolactin levels,[7],induced a similar increase in serum prolactin levels as TBZ
same,MRT,[8],36 to 53 h
same,MRT,"[8]; po, 50 mg",36 h
same,specificity for the VMAT2 transporter versus monoamine receptor subtypes,[10],high specificity
"COc1cc2c(cc1OC)[C@@H]1C[C@H](O)[C@@H](CC(C)C)CN1CC2 [S,S,S-DHTBZ]",interaction with D2 receptors,[11],interact with D1 and D2 receptors
same,interaction with D1 receptors,[12],interact with D1 and D2 receptors
"COc1cc2c(cc1OC)C1CC(=O)C(CC(C)C)CN1CC2 (centres unmarked) [TBZ, reference compound]",inhibition of uptake through VMAT1,[3],no significant inhibitory activity; also recorded: no significant effect on the uptake of monoamines through VMAT1
same,induction of ptosis,[4],induced ptosis in an equivalent manner
same,increase in serum prolactin levels,[7],increase in serum prolactin levels
"COC(=O)[C@H]1[C@H]2C[C@@H]3c4[nH]c5cc(OC)ccc5c4CCN3C[C@H]2C[C@@H](OC(=O)c2cc(OC)c(OC)c(OC)c2)[C@@H]1OC [reserpine, reference compound]",inhibition of uptake through VMAT1,[3],substantially inhibited uptake through VMAT1
COc1cc2c(cc1OC)[C@H]1C[C@@H](OC(=O)[C@@H](N)C(C)(C)O)[C@H](CC(C)C)CN1CC2 [NBI-136110],increase in AUC0-∞,[5],< 2 fold
same,increase in Cmax,[5],< 2 fold
same,increase in t1/2 with hepatic impairment,[5],< 2 fold
same,increase in tmax with hepatic impairment,[5],< 2 fold
same,mean Tlag,[5],0.33 to 0.54 h
same,mean molar ratio of plasma AUC0-∞ for NBI-136110 versus NBI-98854,[5],28.3-37.3%
same,affinity for more than 80 binding sites,[6],little to no affinity
same,MRT,[8],51 to 81 h
same,half-life,[8]; mean t1/2,33 to 36 h
same,Tmax,[8]; median tmax,2.5 to 4 h
same,AUC(0-t),"[8]; po, 50 mg, AUC0-24",363 ng·h/mL
same,AUC(0-t),"[8]; po, 50 mg, AUC0-TLAST",928 ng·h/mL
same,AUC(0-inf),"[8]; po, 50 mg, AUC0-∞",1030 ng·h/mL
same,Cmax,"[8]; po, 50 mg, CMAX",32.5 ng/mL
same,MRT,"[8]; po, 50 mg",53 h
same,Tmax,"[8]; po, 50 mg, TMAX",4 h
same,half-life,"[8]; po, 50 mg, t1/2",57 h
"COc1cc2c(cc1OC)[C@@H]1C[C@@H](O)[C@@H](CC(C)C)CN1CC2 [R,S,S-DHTBZ]",interaction with D2 receptors,[11],interact with D1 and D2 receptors
same,interaction with D1 receptors,[12],interact with D1 and D2 receptors
